“And” between values parts separate entries of the source, which are not always exact repeats. Equal values may be shown once. Toxic doses and inconclusive results are not listed.
System: CD2F1 mice, L1210 leukemia ip, survival T/C
Test: NCI In Vivo Anticancer Drug Screen. Data for tumor model L1210 Leukemia (intraperitoneal) in CD2F1 (CDF1) mice
Conditions: higher = longer survival
Outline: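 Implant tumor; dose compound or vehicle; measure endpoint in both groups; report treated divided by control.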

[1] = endpoint: mean survival time, dose: 100.0 mg/kg/injection, schedule: Q01DX009 (ip), vehicle: saline with Tween-80
[2] = endpoint: mean survival time, dose: 100.0 mg/kg/injection, schedule: Q04DX003 (ip), vehicle: saline with Tween-80
[3] = endpoint: mean survival time, dose: 200.0 mg/kg/injection, schedule: Q01DX009 (ip), vehicle: saline with Tween-80
[4] = endpoint: mean survival time, dose: 200.0 mg/kg/injection, schedule: Q04DX003 (ip), vehicle: saline with Tween-80
[5] = endpoint: mean survival time, dose: 400.0 mg/kg/injection, schedule: Q01DX009 (ip), vehicle: saline with Tween-80
[6] = endpoint: mean survival time, dose: 400.0 mg/kg/injection, schedule: Q04DX003 (ip), vehicle: saline with Tween-80
[7] = endpoint: mean survival time, dose: 12.5 mg/kg/injection, schedule: Q01DX005 (ip), vehicle: distilled water + Tween-80
[8] = endpoint: mean survival time, dose: 25.0 mg/kg/injection, schedule: Q01DX005 (ip), vehicle: distilled water + Tween-80
[9] = endpoint: mean survival time, dose: 50.0 mg/kg/injection, schedule: Q01DX005 (ip), vehicle: distilled water + Tween-80
[10] = endpoint: mean survival time, dose: 100.0 mg/kg/injection, schedule: Q01DX005 (ip), vehicle: distilled water + Tween-80
[11] = endpoint: mean survival time, dose: 25.0 mg/kg/injection, schedule: Q04DX002 (ip), vehicle: saline with Tween-80
[12] = endpoint: mean survival time, dose: 50.0 mg/kg/injection, schedule: Q04DX002 (ip), vehicle: saline with Tween-80
[13] = endpoint: mean survival time, dose: 50.0 mg/kg/injection, schedule: Q01DX009 (ip), vehicle: saline with Tween-80
[14] = endpoint: mean survival time, dose: 50.0 mg/kg/injection, schedule: Q01DX009 (ip), vehicle: Klucel (hydroxypropylcellulose) (HPC)
[15] = endpoint: mean survival time, dose: 100.0 mg/kg/injection, schedule: Q01DX009 (ip), vehicle: Klucel (hydroxypropylcellulose) (HPC)

Structure (SMILES): CCOC(=O)c1c(C)cc(C)[nH]c1=O
- T/C (endpoint: mean survival time, dose: 100.0 mg/kg/injection, schedule: Q04DX003 (ip), vehicle: saline + alcohol): 102 % of control
- T/C (endpoint: mean survival time, dose: 200.0 mg/kg/injection, schedule: Q04DX003 (ip), vehicle: saline + alcohol): 107 % of control
- T/C (endpoint: mean survival time, dose: 400.0 mg/kg/injection, schedule: Q04DX003 (ip), vehicle: saline + alcohol): 113 % of control

Structure (SMILES): OC(CI)C(O)C(O)C(O)CI (configuration not stated) (tested in a mixture with another compound)
- T/C (endpoint: mean survival time, dose: 50.0 mg/kg/injection, schedule: Q01DX001 (ip), vehicle: saline with Tween-80): 96 % of control
- T/C (endpoint: mean survival time, dose: 100.0 mg/kg/injection, schedule: Q01DX001 (ip), vehicle: saline with Tween-80): 100 % of control
- T/C (endpoint: mean survival time, dose: 200.0 mg/kg/injection, schedule: Q01DX001 (ip), vehicle: saline with Tween-80): 96 % of control

Structure (SMILES): NC(=O)c1cc(C(N)=O)n(C2OC(CO)C(O)C2O)n1 (configuration not stated)
- T/C (endpoint: mean survival time, dose: 12.5 mg/kg/injection, schedule: Q01DX005 (ip), vehicle: water): 100 % of control
- T/C (endpoint: mean survival time, dose: 25.0 mg/kg/injection, schedule: Q01DX005 (ip), vehicle: water): 100 % of control
- T/C (endpoint: mean survival time, dose: 50.0 mg/kg/injection, schedule: Q01DX005 (ip), vehicle: water): 92 % of control
- T/C (endpoint: mean survival time, dose: 100.0 mg/kg/injection, schedule: Q01DX005 (ip), vehicle: water): 107 % of control
- T/C (endpoint: mean survival time, dose: 200.0 mg/kg/injection, schedule: Q01DX005 (ip), vehicle: water): 96 % of control

Structure (SMILES): CCCCCCCCCCOCCCCCCCCCC
- T/C (endpoint: mean survival time, dose: 100.0 mg/kg/injection, schedule: Q01DX009 (ip), vehicle: saline): 95 % of control
- T/C (endpoint: mean survival time, dose: 100.0 mg/kg/injection, schedule: Q04DX003 (ip), vehicle: saline): 94 % of control
- T/C (endpoint: mean survival time, dose: 200.0 mg/kg/injection, schedule: Q01DX009 (ip), vehicle: saline): 98 % of control
- T/C (endpoint: mean survival time, dose: 200.0 mg/kg/injection, schedule: Q04DX003 (ip), vehicle: saline): 101 % of control
- T/C (endpoint: mean survival time, dose: 400.0 mg/kg/injection, schedule: Q01DX009 (ip), vehicle: saline): 97 % of control
- T/C (endpoint: mean survival time, dose: 400.0 mg/kg/injection, schedule: Q04DX003 (ip), vehicle: saline): 94 % of control

Structure (SMILES): O=P(O)(O)OCC1OC(n2cnc3c(NCc4ccccc4)ncnc32)C(O)C1O (configuration not stated)
- T/C (endpoint: mean survival time, dose: 12.5 mg/kg/injection, schedule: Q01DX005 (ip), vehicle: other): 104 % of control
- T/C (endpoint: mean survival time, dose: 25.0 mg/kg/injection, schedule: Q01DX005 (ip), vehicle: other): 100 % of control
- T/C (endpoint: mean survival time, dose: 50.0 mg/kg/injection, schedule: Q01DX005 (ip), vehicle: other): 104 % of control
- T/C (endpoint: mean survival time, dose: 100.0 mg/kg/injection, schedule: Q01DX005 (ip), vehicle: other): 117 % of control

Structure (SMILES): O=C(Nc1ccc(Br)cc1)c1ccccc1
- T/C [1]: 107 % of control
- T/C [2]: 102 % of control
- T/C [3]: 94 % of control
- T/C [4]: 102 % of control
- T/C [5]: 91 % of control
- T/C [6]: 100 % of control

Structure (SMILES): COC1OC2C(CO)OC(n3ncc4c3ncn3cnnc43)C2O1 (configuration not stated)
- T/C [7]: 96 % of control
- T/C [8]: 96 % of control
- T/C [9]: 92 % of control
- T/C [10]: 96 % of control
- T/C (endpoint: mean survival time, dose: 200.0 mg/kg/injection, schedule: Q01DX005 (ip), vehicle: distilled water + Tween-80): 96 % of control

Structure (SMILES): CCCCN(Cl)CCCC
- T/C [11]: 92 % of control
- T/C [12]: 92 % of control
- T/C (endpoint: mean survival time, dose: 100.0 mg/kg/injection, schedule: Q04DX002 (ip), vehicle: saline with Tween-80): 103 % of control

Structure (SMILES): CC(C)C1CC2CCC3C(C)(C(=O)O)CCCC3(C)C2CC1CO (configuration not stated)
- T/C [1]: 87 % of control
- T/C [3]: 91 % of control
- T/C [5]: 86 % of control

Structure (SMILES): CCc1ccccc1NC(=O)Nc1ccc(N(C)C(C)=O)cc1
- T/C [1]: 95 % of control
- T/C [3]: 93 % of control
- T/C [5]: 93 % of control

Structure (SMILES): CC[C@@]1(OC(=O)C(N)CCC(=O)O)C(=O)OCc2c1cc1n(c2=O)Cc2cc3ccccc3nc2-1 (some centres not stated)
- T/C (endpoint: median survival time, dose: 6.85 mg/kg/injection, schedule: Q04DX002 (ip), vehicle: water): 107 % of control and 108 % of control
- T/C (endpoint: median survival time, dose: 10.27 mg/kg/injection, schedule: Q04HX004 (iv), vehicle: water): 120 % of control and 111 % of control
- T/C (endpoint: median survival time, dose: 13.69 mg/kg/injection, schedule: Q04DX002 (ip), vehicle: water): 113 % of control
- T/C (endpoint: median survival time, dose: 27.39 mg/kg/injection, schedule: Q04DX002 (ip), vehicle: water): 122 % of control
- T/C (endpoint: median survival time, dose: 41.08 mg/kg/injection, schedule: Q04HX004 (iv), vehicle: water): 184 % of control and 197 % of control
- T/C (endpoint: median survival time, dose: 54.78 mg/kg/injection, schedule: Q04DX002 (ip), vehicle: water): 154 % of control and 170 % of control
- T/C (endpoint: median survival time, dose: 54.78 mg/kg/injection, schedule: Q04HX004 (iv), vehicle: water): 204 % of control and 211 % of control
- T/C (endpoint: median survival time, dose: 109.6 mg/kg/injection, schedule: Q04DX002 (ip), vehicle: water): 208 % of control

Structure (SMILES): OC(c1ccccc1)c1cc(-c2ccccc2)c(-c2ccccc2)cc1C(O)c1ccccc1 (configuration not stated)
- T/C (endpoint: mean survival time, dose: 12.5 mg/kg/injection, schedule: Q04DX003 (ip), vehicle: saline with Tween-80): 102 % of control
- T/C (endpoint: mean survival time, dose: 25.0 mg/kg/injection, schedule: Q04DX003 (ip), vehicle: saline with Tween-80): 114 % of control

Structure (SMILES): C/C(=N/O)C1=C(O)C(Cc2ccccc2)NC1=O (configuration not stated)
- T/C (endpoint: mean survival time, dose: 12.5 mg/kg/injection, schedule: Q04DX002 (ip), vehicle: saline with Tween-80): 100 % of control
- T/C [11]: 121 % of control
- T/C [12]: 103 % of control

Structure (SMILES): CCOC(=S)SSC(=S)OCC
- T/C (endpoint: mean survival time, dose: 100.0 mg/kg/injection, schedule: Q01DX001 (ip), vehicle: Klucel (hydroxypropylcellulose) (HPC)): 92 % of control
- T/C (endpoint: mean survival time, dose: 200.0 mg/kg/injection, schedule: Q01DX001 (ip), vehicle: Klucel (hydroxypropylcellulose) (HPC)): 114 % of control

Structure (SMILES): O=[N+]([O-])c1ccc2nc(Cl)sc2c1
- T/C (endpoint: mean survival time, dose: 25.0 mg/kg/injection, schedule: Q01DX009 (ip), vehicle: saline with Tween-80): 102 % of control
- T/C [13]: 103 % of control
- T/C [1]: 100 % of control
- T/C [2]: 86 % of control

Structure (SMILES): C=CCN(CC=C)Cc1cccc(N(CCCl)CCCl)c1 (tested in a mixture with another compound)
- T/C [14]: 109 % of control
- T/C [15]: 114 % of control

Structure (SMILES): O=C(OCC1OC(n2cnc3cc(Cl)c(Cl)cc32)C(OC(=O)c2ccccc2)C1OC(=O)c1ccccc1)c1ccccc1 (configuration not stated)
- T/C [7]: 95 % of control
- T/C [8]: 101 % of control
- T/C [9]: 93 % of control
- T/C [10]: 95 % of control

Structure (SMILES): c1ccc(C2CC2c2ccccc2)cc1 (configuration not stated)
- T/C (endpoint: mean survival time, dose: 75.0 mg/kg/injection, schedule: Q01DX001 (ip), vehicle: saline): 100 % of control
- T/C (endpoint: mean survival time, dose: 150.0 mg/kg/injection, schedule: Q01DX001 (ip), vehicle: saline): 96 % of control
- T/C (endpoint: mean survival time, dose: 300.0 mg/kg/injection, schedule: Q01DX001 (ip), vehicle: saline): 98 % of control

Structure (SMILES): O=C(NC(CSSCC(NC(=O)OCc1ccccc1)C(=O)O)C(=O)O)OCc1ccccc1 (configuration not stated)
- T/C (endpoint: mean survival time, dose: 100.0 mg/kg/injection, schedule: Q01DX009 (ip), vehicle: other): 95 % of control
- T/C (endpoint: mean survival time, dose: 200.0 mg/kg/injection, schedule: Q01DX009 (ip), vehicle: other): 95 % of control
- T/C (endpoint: mean survival time, dose: 400.0 mg/kg/injection, schedule: Q01DX009 (ip), vehicle: other): 98 % of control

Structure (SMILES): O=C(O)c1ccccc1C(=O)NCc1ccccn1
- T/C [14]: 90 % of control
- T/C [15]: 97 % of control
- T/C (endpoint: mean survival time, dose: 200.0 mg/kg/injection, schedule: Q01DX009 (ip), vehicle: Klucel (hydroxypropylcellulose) (HPC)): 101 % of control

Structure (SMILES): NC(=O)CC(NC(=O)OCc1ccccc1)C(=O)O (configuration not stated)
- T/C [2]: 95 % of control
- T/C [4]: 101 % of control
- T/C [6]: 93 % of control

Structure (SMILES): CO[C@H]1/C=C/O[C@@]2(C)Oc3c(C)c(O)c4c(O)c(c(/C=N/N5C(C)CN(Cc6ccccc6)CC5C)c(O)c4c3C2=O)NC(=O)/C(C)=C\C=C\[C@H](C)[C@H](O)[C@@H](C)[C@@H](O)[C@@H](C)[C@H](OC(C)=O)[C@@H]1C (some centres not stated)
- T/C [13]: 96 % of control
- T/C [1]: 100 % of control
- T/C [3]: 96 % of control
- T/C [4]: 90 % of control

Structure (SMILES): CC1CC(OC(=O)c2ccccc2)CCC1=O (configuration not stated)
- T/C (endpoint: mean survival time, dose: 5.0 mg/kg/injection, schedule: Q01DX001 (ip), vehicle: other): 102 % of control
- T/C (endpoint: mean survival time, dose: 10.0 mg/kg/injection, schedule: Q01DX001 (ip), vehicle: other): 106 % of control
- T/C (endpoint: mean survival time, dose: 20.0 mg/kg/injection, schedule: Q01DX001 (ip), vehicle: other): 103 % of control
- T/C (endpoint: mean survival time, dose: 40.0 mg/kg/injection, schedule: Q01DX001 (ip), vehicle: other): 108 % of control
- T/C (endpoint: mean survival time, dose: 80.0 mg/kg/injection, schedule: Q01DX001 (ip), vehicle: other): 96 % of control

Source: PubChem BioAssay AID256 (DTP/NCI, 2004)
